The subject of test [1] is HSV. Nature of the test: HSV plaque assays using Vero cells with and without EGCG (Example 1). The test is classed as cell-based. The note with it: 100 μM applied. How it is done:
HSV plaque assays using Vero cells were conducted with and without the addition of epigallocatechin gallate (EGCG).

Test [2] concerns HSV1-UL46. Put plainly: GFP expression study using a fluorometer. The test is classed as cell-based. The note with it: 75 μM, virions treated 3 hours, cells 12 hrs. How it is done: GFP expression was studied in Escherichia coli that contained GFP plasmid, and Escherichia coli without GFP plasmid. The fluorometer used was a Tuner Digital Fluorometer-Model 450. Samples were put into 3 mLs of H2O and serial dilutions were performed from the first 3 mLs of each sample. A standard dilution curve was obtained from the serial dilutions. Next, Vero cells were grown on T-75 flasks and allowed to reach confluence. HSV1 virions were treated for 3 hours with 75 μM of polyphenols prior to cell infection. Cells were then infected with treated and non-treated HSV1-UL46 and allowed to adsorb for 1 hour. Viruses that had not been absorbed were then removed by washing the cells twice with PBS. The cells were then incubated at 37° C. for 12 hrs. Cells were then trypsinized and pelleted. Finally, cells were resuspended with 3 mLs of H2O and analyzed for GFP expression using a fluorometer. 3 ml of water was used as the blank sample. The Gain knob was set to 1000 for higher fluorescence sensitivity.
In this experiment, Vero cells only, HSV1/Vero cells, and 75 μM EGCG-ester-HSV1/Vero cells were used to quantitatively measure GFP expression.

The text below walks through data of patent US9446017B2, “Compositions and methods for treating herpes simplex virus” (Augusta University Research Institute, Inc., priority 2005, dated 2016).

In the case of `O=C(O[C@@H]1Cc2c(O)cc(O)cc2O[C@@H]1c1cc(O)c(O)c(O)c1)c1cc(O)c(O)c(O)c1` [EGCG, (−)-epigallocatechin-3-gallate, reference compound], the viral plaques result in test [1] is given as “no viral plaques were observed”. On to `CCCCCCCCCCCCCCCC(=O)Oc1c(O)cc([C@H]2Oc3cc(O)cc(O)c3C[C@H]2OC(=O)c2cc(O)c(O)c(O)c2)cc1O` [EGCG-ester], for which, in test [2], the “GFP expression (fluorometer) compared to HSV1/Vero cells” value is listed as “much lower”.
